Values of other authors, collected in patent US20050112093A1, “Combination therapy for HCV infection” (priority 2003, published 2005).

Assays:
[1] = majority of patients, over the course of treatment
HCV [2] = system: HCV
HCV [3] = system: HCV; remark: listed apart in the source

| Compound | mean decrease in hemoglobin [1] | serum HCV RNA levels (HCV [2]; ribavirin treatment alone) | liver enzyme levels (HCV [2]; ribavirin used alone, during treatment, return to baseline when treatment is discontinued) | patients achieving a sustained virological response (SVR) (HCV [3]; chronic HCV infection, following six months of therapy) | SVR (HCV [3]; treatment naïve patients, IFN-α alone, 6 months, the latter (upper) value representing 48 weeks of treatment) |
| --- | --- | --- | --- | --- | --- |
| NC(=O)c1ncn([C@@H]2O[C@H](CO)[C@@H](O)[C@H]2O)n1 [ribavirin, 1-beta-D-ribofuranosyl-1H-1,2,4-triazole-3-carboxamide] | 2 to 3 g/dL | only minimally and transiently decreases serum HCV RNA levels | decreases liver enzyme levels in most patients during treatment |  |  |
| IFN-α |  |  |  | 20% | 6-17% |
